What was measured:
Assay in all cases: KINOMEscan competition binding
Conditions in all cases: compound 1.0 µM
[1] = molecular target: ULK1 (human) (UniProt O75385)
[2] = tested on: EIF2AK4 KD2 (human), Q9P2K8 [S808G]
[3] = molecular target: EPHB3 (human) (UniProt P54753)
[4] = molecular target: PIM2 (human) (UniProt Q9P1W9)
[5] = molecular target: DDR2 (human) (UniProt Q16832)
[6] = molecular target: CDK18 (human) (UniProt Q07002)
[7] = molecular target: ACVR2B (human) (UniProt Q13705)
[8] = molecular target: BRSK1 (human) (UniProt Q8TDC3)
[9] = molecular target: TNK2 (human) (UniProt Q07912)
[10] = molecular target: MYLK2 (human) (UniProt Q9H1R3)
[11] = molecular target: MATK (human) (UniProt P42679)
Chain of MATK (human) (P42679 whole entry, looked up): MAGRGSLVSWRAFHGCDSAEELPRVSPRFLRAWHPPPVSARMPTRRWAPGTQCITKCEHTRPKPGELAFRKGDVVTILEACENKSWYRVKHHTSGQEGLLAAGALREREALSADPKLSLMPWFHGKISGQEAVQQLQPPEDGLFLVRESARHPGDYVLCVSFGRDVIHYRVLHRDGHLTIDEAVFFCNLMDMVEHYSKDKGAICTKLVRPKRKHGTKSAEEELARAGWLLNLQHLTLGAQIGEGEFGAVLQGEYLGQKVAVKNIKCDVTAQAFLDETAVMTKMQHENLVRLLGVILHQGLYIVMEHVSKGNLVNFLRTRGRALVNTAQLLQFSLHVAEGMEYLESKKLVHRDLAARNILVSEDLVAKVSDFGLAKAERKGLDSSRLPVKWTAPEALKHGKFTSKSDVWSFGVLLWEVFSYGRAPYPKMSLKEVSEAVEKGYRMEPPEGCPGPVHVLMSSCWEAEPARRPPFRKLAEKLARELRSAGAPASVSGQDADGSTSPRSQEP

[12] = tested on: EGFR (human), P00533 [752-759 del]
[13] = molecular target: OXSR1 (human) (UniProt O95747)
[14] = molecular target: CIT (human) (UniProt O14578)
[15] = molecular target: TLK2 (human) (UniProt Q86UE8)
Chain of TLK2 (human) (Q86UE8 whole entry, looked up): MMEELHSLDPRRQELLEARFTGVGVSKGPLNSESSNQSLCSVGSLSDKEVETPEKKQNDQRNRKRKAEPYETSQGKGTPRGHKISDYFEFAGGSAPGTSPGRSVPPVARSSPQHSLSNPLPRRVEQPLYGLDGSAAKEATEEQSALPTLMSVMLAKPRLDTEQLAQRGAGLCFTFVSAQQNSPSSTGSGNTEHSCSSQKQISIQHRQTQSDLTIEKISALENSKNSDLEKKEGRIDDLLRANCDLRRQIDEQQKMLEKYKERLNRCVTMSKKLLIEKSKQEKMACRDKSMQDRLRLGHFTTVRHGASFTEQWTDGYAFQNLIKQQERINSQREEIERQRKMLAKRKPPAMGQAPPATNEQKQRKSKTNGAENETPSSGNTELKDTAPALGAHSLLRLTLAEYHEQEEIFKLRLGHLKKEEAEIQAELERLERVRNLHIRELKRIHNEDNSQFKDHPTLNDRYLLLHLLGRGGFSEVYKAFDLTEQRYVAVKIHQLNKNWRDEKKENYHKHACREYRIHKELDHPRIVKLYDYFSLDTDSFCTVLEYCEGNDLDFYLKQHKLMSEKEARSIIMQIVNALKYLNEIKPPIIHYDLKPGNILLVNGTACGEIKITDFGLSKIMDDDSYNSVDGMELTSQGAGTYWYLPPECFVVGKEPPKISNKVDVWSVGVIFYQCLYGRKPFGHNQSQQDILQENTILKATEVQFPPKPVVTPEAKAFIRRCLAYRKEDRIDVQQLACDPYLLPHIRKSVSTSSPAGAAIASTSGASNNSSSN

[16] = molecular target: DYRK1B (human) (UniProt Q9Y463)
[17] = molecular target: FGFR1 (human) (UniProt P11362)
Chain of FGFR1 (human) (P11362 whole entry, looked up): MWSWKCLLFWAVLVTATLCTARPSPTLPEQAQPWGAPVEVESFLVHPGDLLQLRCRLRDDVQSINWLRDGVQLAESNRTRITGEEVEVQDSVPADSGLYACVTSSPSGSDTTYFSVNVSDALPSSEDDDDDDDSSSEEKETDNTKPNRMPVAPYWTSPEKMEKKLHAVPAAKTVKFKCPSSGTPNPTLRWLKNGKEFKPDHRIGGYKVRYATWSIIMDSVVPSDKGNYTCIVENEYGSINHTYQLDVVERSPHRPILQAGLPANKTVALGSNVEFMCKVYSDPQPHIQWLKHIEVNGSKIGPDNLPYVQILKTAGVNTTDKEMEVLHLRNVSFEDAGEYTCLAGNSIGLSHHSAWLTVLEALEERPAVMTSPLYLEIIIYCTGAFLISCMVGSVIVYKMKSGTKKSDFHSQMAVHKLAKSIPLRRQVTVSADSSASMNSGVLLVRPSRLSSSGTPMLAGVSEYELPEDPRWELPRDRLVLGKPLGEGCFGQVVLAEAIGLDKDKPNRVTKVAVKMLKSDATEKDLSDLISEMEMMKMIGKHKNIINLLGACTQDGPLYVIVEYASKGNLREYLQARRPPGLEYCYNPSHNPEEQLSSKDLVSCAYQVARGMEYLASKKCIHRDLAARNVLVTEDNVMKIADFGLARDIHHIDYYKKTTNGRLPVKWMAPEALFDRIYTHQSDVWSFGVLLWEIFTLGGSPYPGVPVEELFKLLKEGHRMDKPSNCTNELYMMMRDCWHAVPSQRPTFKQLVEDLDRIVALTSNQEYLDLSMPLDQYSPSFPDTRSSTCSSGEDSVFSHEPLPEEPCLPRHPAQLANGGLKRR

[18] = molecular target: NUAK2 (human) (UniProt Q9H093)
Chain of NUAK2 (human) (Q9H093 whole entry, looked up): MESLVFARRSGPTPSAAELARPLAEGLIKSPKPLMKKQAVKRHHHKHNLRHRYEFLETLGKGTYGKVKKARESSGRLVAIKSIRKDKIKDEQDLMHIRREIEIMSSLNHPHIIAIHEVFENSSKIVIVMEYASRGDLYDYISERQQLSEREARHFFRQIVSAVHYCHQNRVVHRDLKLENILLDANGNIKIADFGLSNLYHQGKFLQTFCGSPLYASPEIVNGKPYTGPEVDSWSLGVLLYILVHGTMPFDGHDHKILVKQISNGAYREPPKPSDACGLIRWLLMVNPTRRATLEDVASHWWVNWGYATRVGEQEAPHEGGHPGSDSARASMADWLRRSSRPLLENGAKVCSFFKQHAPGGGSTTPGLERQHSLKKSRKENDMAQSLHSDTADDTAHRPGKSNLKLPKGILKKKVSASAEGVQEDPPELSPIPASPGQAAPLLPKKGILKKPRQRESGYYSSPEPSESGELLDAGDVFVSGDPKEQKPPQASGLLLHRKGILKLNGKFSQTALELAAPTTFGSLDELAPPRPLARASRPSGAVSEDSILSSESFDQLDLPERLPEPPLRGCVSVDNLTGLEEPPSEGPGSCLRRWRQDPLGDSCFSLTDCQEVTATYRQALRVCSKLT

[19] = molecular target: ALK (human) (UniProt Q9UM73)
[20] = molecular target: MAP2K5 (human) (UniProt Q13163)
Chain of MAP2K5 (human) (Q13163 whole entry, looked up): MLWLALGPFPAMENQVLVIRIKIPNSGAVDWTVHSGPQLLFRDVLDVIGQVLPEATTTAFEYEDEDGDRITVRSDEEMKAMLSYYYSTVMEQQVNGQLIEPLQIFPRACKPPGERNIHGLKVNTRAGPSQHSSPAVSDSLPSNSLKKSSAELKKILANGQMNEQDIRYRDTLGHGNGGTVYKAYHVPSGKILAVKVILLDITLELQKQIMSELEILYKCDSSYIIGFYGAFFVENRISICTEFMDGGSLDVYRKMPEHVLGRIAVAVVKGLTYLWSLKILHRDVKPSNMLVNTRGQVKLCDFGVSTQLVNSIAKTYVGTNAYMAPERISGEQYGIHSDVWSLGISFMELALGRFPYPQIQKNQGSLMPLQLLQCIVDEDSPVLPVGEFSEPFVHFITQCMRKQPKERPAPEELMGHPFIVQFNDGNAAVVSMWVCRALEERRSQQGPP

[21] = molecular target: CDKL5 (human) (UniProt O76039)
[22] = molecular target: CDK2 (human) (UniProt P24941)
[23] = molecular target: DCLK2 (human) (UniProt Q8N568)
[24] = molecular target: LYN (human) (UniProt P07948)
[25] = molecular target: PIK3CG (human) (UniProt P48736)
[26] = molecular target: LATS1 (human) (UniProt O95835)
[27] = molecular target: BMP2K (human) (UniProt Q9NSY1)
[28] = tested on: PIK3CA (human), P42336 [H1047Y]
[29] = molecular target: NEK2 (human) (UniProt P51955)
[30] = molecular target: AKT2 (human) (UniProt P31751)
[31] = molecular target: JAK2 JH1 catalytic (human) (UniProt O60674)
[32] = molecular target: MAPK11 (human) (UniProt Q15759)
Chain of MAPK11 (human) (Q15759 whole entry, looked up): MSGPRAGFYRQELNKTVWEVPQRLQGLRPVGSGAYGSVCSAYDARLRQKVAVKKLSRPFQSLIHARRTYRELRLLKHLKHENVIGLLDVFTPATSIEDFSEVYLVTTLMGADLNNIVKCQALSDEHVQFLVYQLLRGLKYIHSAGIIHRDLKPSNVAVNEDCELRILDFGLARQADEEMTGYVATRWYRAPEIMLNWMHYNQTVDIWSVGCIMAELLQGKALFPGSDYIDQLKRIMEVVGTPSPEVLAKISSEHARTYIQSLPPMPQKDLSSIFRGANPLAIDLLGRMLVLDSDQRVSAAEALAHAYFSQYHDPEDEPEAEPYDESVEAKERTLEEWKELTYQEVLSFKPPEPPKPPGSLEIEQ

[33] = molecular target: STK36 (human) (UniProt Q9NRP7)
[34] = molecular target: LIMK2 (human) (UniProt P53671)
[35] = molecular target: AKT3 (human) (UniProt Q9Y243)
[36] = molecular target: MINK1 (human) (UniProt Q8N4C8)
[37] = molecular target: SBK1 (human) (UniProt Q52WX2)
[38] = molecular target: PLK1 (human) (UniProt P53350)
[39] = molecular target: SIK2 (human) (UniProt Q9H0K1)
Chain of SIK2 (human) (Q9H0K1 whole entry, looked up): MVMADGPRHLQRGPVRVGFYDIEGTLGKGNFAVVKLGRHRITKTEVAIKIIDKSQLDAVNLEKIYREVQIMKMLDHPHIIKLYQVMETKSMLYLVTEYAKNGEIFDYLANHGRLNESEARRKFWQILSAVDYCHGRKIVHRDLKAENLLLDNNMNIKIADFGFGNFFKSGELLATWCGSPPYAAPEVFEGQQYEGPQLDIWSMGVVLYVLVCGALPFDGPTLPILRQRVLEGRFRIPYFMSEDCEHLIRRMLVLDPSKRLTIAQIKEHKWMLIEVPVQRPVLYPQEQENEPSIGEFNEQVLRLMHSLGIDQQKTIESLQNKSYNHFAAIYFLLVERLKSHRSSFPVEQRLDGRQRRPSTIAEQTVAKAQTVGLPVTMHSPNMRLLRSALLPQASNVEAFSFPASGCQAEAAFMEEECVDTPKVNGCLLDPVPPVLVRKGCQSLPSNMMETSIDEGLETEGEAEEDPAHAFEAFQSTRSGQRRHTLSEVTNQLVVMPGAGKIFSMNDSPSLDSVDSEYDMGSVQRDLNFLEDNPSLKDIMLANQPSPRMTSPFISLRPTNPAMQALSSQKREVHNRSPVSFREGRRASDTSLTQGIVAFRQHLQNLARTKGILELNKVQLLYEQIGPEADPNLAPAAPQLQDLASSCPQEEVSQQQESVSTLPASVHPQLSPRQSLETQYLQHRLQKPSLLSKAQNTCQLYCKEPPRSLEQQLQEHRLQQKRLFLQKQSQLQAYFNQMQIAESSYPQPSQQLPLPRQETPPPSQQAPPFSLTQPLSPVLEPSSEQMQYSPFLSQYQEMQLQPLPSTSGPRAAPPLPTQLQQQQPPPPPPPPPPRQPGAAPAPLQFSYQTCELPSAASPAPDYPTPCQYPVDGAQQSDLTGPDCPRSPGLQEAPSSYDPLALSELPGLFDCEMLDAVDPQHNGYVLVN

[40] = molecular target: BTK (human) (UniProt Q06187)
[41] = molecular target: DYRK1A (human) (UniProt Q13627)
[42] = molecular target: MAPK10 (human) (UniProt P53779)

Chain of ACVR2B (human) (Q13705 whole entry, looked up): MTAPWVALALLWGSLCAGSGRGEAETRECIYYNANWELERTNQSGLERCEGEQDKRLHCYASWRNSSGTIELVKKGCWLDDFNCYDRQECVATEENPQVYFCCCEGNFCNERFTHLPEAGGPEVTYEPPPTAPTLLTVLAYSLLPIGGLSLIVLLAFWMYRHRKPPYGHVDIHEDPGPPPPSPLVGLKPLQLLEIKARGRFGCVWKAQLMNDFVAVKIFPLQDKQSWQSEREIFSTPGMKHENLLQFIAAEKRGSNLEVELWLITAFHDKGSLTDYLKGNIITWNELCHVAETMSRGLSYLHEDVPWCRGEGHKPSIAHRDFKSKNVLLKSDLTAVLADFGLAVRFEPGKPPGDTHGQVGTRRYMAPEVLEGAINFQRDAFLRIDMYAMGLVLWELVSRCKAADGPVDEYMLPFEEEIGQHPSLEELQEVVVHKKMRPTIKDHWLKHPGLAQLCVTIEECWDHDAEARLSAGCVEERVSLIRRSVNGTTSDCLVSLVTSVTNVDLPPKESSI

Cc1cc(NC(=O)c2cccc(NC(=O)/C=C/CN(C)C)c2)ccc1Nc1nccc(-c2cccnc2)n1
kinase still bound, per cent of control [1]: 100% | kinase still bound, per cent of control [2]: 100% | kinase still bound, per cent of control [3]: 100% | kinase still bound, per cent of control [4]: 100% | kinase still bound, per cent of control [5]: 89% | kinase still bound, per cent of control [6]: 100% | kinase still bound, per cent of control [7]: 100% | kinase still bound, per cent of control [8]: 100% | kinase still bound, per cent of control [9]: 90% | kinase still bound, per cent of control [10]: 13% | kinase still bound, per cent of control [11]: 81% | kinase still bound, per cent of control [12]: 79% | kinase still bound, per cent of control [13]: 89% | kinase still bound, per cent of control [14]: 100% | kinase still bound, per cent of control [15]: 100% | kinase still bound, per cent of control [16]: 100% | kinase still bound, per cent of control [17]: 94% | kinase still bound, per cent of control [18]: 70% | kinase still bound, per cent of control [19]: 85% | kinase still bound, per cent of control [20]: 67% | kinase still bound, per cent of control [21]: 100% | kinase still bound, per cent of control [22]: 77% | kinase still bound, per cent of control [23]: 94% | kinase still bound, per cent of control [24]: 87% | kinase still bound, per cent of control [25]: 100% | kinase still bound, per cent of control [26]: 91% | kinase still bound, per cent of control [27]: 94% | kinase still bound, per cent of control [28]: 96% | kinase still bound, per cent of control [29]: 100% | kinase still bound, per cent of control [30]: 100% | kinase still bound, per cent of control [31]: 100% | kinase still bound, per cent of control [32]: 20% | kinase still bound, per cent of control [33]: 91% | kinase still bound, per cent of control [34]: 98% | kinase still bound, per cent of control [35]: 100% | kinase still bound, per cent of control [36]: 71% | kinase still bound, per cent of control [37]: 96% | kinase still bound, per cent of control [38]: 100% | kinase still bound, per cent of control [39]: 88% | kinase still bound, per cent of control [40]: 100% | kinase still bound, per cent of control [41]: 81% | kinase still bound, per cent of control [42]: 0%

From the kinase profiling compilation of Christmann-Franck et al. (2016)
